Like-named read-outs stand apart in the source and are kept apart here.
Key:
[1] = Absorption in rats after intragastric administration of different crystal forms (plasma PK, LC/MS/MS); assay type: in vivo; settings: 8 mg/kg
Description: SD rats were intragastrically administered samples of different crystal forms. Blood samples (0.4 mL) were respectively collected from the venous plexus of the rat's fundus oculi at various time points: before administration and at 5, 15, 30, 60, 90, 120, 240, 360, 480, 600, and 1440 minutes after administration. The blood samples were centrifuged at 8000 rpm for 5 minutes to separate the upper plasma. 50 μL of plasma sample was added with 300 μL of acetonitrile containing an internal standard (Propranolol, 25 ng/mL) to precipitate proteins. The mixture was vortexed for 10 minutes, and centrifuged at 6000 g and 4° C. for 20 minutes. The supernatant (20 μL) was taken and diluted with 80 μL of ultrapure water. After centrifugation, 80 μL of the supernatant was taken for injection into a 96-well plate. The plasma drug concentration was determined using LC/MS/MS, and the corresponding pharmacokinetic parameters were calculated, as shown in Table 17.

EGFR kinase = target: T1, EGFR kinase (Homo sapiens, UniProt P00533); assay: EGFR/ErbB2 enzymatic assay (HTRF kinEASE-TK), EGFR; assay type: biochemical; settings: EGFR kinase 0.06 units/μL, ATP 1.65 μM
T1 construct: purchased Carna 08-016
Description: (§1) First, a 1× reaction buffer required for the kinase was prepared by diluting the 5× Enzymatic Buffer (HEPES 20 mM, pH 7.0, NaN3 0.1%, BSA 0.05%, sodium orthovanadate 0.5 mM) from the HTRF kinEASE-TK kit with deionized water to one-fold. At the same time, 50 nM Supplement Enzymatic Buffer (SEB reagent), 1 mM MnCl2, 5 mM MgCl2, and 1 mM DTT were added. Next, a 5× compound solution was prepared. […] This initial concentration was then used as the first concentration, and further diluted with DMSO in a 3-fold serial dilution to dilute a total of 10 concentrations. Subsequently, 1 μL of the serially diluted solution was added to 19 μL of 1× reaction buffer to prepare the 5× compound solution for later use. Then, 2 μL of the 5× compound solution was transferred from the 96-well plate into a 384-well plate. In the no-compound control wells, 2 μL of a mixture of 1 μL DMSO and 19 μL 1× reaction buffer was added. In the blank control wells, 2 μL of 250 mM EDTA was added. In the third step, the enzyme reaction stage, the kinase, substrate (TK Substrate-biotin), and ATP were prepared into a 2.5× enzyme/substrate mixture and a 2.5× ATP solution using the 1× reaction buffer. […] Data were measured on EnVision™, with a 337 nm laser used as the excitation light. The RFU was measured at 665 nm and 620 nm, and RFU 665 nM/RFU 620 nM×10000 was used as the final data for analysis.

[2] = Physicochemical stability of crystal form C (UPLC purity, XRPD)
Description: The solid samples after being placed under different conditions were respectively tested for purity by UPLC to evaluate chemical stability, and the crystal form was tested by XRPD to evaluate physical stability. […] Additionally, no significant degradation was observed after one day at 60° C. or one week at 25° C./60% RH and 40° C./75% RH (details of purity changes are provided in Table 16).

ErbB2 kinase (HER2) = target: T2, ErbB2 kinase (HER2) (Homo sapiens, UniProt P04626); assay: EGFR/ErbB2 enzymatic assay (HTRF kinEASE-TK), ErbB2; assay type: biochemical; settings: ErbB2 kinase 0.06 ng/μL, ATP 4 μM
T2 construct: purchased Sigma E2645-500UN
Description: as §1

T1 sequence (P00533 25-1210): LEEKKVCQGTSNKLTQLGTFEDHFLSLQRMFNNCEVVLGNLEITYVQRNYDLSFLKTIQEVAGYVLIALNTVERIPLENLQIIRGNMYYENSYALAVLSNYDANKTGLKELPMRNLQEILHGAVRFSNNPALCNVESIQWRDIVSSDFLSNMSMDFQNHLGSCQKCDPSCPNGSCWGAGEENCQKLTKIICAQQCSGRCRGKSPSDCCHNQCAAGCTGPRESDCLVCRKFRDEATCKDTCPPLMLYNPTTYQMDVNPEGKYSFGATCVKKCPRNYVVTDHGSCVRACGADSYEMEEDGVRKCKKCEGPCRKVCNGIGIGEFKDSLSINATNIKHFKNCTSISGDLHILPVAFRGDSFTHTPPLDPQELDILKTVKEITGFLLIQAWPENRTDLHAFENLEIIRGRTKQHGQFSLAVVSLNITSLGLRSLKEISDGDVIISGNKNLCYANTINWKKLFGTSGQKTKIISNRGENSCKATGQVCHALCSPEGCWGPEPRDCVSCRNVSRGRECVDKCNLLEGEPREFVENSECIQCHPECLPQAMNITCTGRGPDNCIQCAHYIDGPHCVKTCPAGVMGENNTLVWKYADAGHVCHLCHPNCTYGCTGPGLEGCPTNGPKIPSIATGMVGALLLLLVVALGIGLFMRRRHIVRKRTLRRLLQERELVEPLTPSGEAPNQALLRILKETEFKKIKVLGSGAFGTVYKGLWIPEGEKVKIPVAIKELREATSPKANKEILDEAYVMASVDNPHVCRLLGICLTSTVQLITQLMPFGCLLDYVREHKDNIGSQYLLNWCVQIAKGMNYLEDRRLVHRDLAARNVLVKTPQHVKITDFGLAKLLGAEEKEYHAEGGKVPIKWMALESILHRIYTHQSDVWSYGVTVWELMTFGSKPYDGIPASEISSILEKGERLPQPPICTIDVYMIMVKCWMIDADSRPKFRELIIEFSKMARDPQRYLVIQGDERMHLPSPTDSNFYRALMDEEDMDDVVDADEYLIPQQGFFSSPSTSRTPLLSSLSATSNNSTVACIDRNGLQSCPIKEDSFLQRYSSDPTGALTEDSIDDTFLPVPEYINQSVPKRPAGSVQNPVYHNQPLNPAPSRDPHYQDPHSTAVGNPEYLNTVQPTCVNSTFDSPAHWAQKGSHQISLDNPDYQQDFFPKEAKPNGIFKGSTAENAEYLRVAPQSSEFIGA
T2 sequence (P04626 23-1255): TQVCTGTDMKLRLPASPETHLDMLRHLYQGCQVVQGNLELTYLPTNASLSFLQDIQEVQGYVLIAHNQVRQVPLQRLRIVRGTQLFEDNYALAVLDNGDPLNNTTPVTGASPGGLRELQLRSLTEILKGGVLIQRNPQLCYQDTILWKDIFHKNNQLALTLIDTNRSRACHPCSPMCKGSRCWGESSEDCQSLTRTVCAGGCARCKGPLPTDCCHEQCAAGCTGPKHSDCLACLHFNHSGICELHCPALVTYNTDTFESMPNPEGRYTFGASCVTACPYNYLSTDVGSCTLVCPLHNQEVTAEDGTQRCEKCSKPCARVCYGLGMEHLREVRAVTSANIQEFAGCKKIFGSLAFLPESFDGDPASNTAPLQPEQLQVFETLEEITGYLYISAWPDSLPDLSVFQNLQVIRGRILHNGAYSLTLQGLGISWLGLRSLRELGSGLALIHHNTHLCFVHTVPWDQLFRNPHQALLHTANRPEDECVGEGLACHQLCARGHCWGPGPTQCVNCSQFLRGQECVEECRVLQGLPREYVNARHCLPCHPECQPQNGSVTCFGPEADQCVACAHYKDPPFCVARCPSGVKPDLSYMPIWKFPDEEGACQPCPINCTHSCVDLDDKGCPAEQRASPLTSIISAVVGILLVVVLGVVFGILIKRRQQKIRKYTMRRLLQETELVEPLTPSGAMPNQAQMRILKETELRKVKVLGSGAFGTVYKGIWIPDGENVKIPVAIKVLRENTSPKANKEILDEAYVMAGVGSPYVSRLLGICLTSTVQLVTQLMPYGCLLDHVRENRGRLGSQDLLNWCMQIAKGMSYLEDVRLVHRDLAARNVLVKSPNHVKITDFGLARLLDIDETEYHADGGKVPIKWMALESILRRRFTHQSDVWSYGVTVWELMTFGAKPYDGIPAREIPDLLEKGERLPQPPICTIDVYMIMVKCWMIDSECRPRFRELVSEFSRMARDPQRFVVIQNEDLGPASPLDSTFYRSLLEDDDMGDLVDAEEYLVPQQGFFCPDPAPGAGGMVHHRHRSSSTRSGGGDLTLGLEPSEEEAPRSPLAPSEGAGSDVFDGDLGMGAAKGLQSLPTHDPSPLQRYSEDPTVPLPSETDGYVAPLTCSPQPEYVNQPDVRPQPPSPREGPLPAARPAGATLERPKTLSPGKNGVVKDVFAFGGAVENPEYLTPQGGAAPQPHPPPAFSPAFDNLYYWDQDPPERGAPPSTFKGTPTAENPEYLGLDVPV

With `CCOc1cc2ncnc(Nc3ccc(Oc4ccn5ncnc5c4)c(C)c3)c2cc1NC(=O)/C(F)=C/[C@H]1CCCN1C` [Amorphous form, (R,Z)-N-(4-((4-([1,2,4]triazolo[1,5-α]pyridin-7-yloxy)-3-methylphenyl)amino)-7-ethoxyquinazolin-6-yl)-2-fluoro-3-(1-methylpyrrolidin-2-yl)acrylamide] the AUCextra ([1]; SD rats) was 0.758 (h)*(ng/mL), the AUClast ([1]; SD rats) was 6536 (h)*(ng/mL) and the AUCtot ([1]; SD rats) was 6586 (h)*(ng/mL). For the same compound, the Cmax ([1]; SD rats) was 800 ng/mL, the Tmax ([1]; SD rats) was 6.00 h and the half-life ([1]; SD, rat, plasma, po) was 3.03 h. For the same compound, the MRT ([1]; SD, rat, plasma, po, read-out: MRT) was 6.52 h.

For `CCOc1cc2ncnc(Nc3ccc(Oc4ccn5ncnc5c4)c(C)c3)c2cc1NC(=O)/C(F)=C/[C@H]1CCCN1C` [Crystal form A, (R,Z)-N-(4-((4-([1,2,4]triazolo[1,5-α]pyridin-7-yloxy)-3-methylphenyl)amino)-7-ethoxyquinazolin-6-yl)-2-fluoro-3-(1-methylpyrrolidin-2-yl)acrylamide], the AUCextra ([1]; SD rats) was 0.288 (h)*(ng/mL), the AUClast ([1]; SD rats) was 4789 (h)*(ng/mL) and the AUCtot ([1]; SD rats) was 4802 (h)*(ng/mL). The Cmax ([1]; SD rats) was 753 ng/mL, the MRT ([1]; SD rats) was 4.74 h and the Tmax ([1]; SD rats) was 2.00 h. It also gave a t1/2 ([1]; SD rats) of 2.74 h.

In the case of `CCOc1cc2ncnc(Nc3ccc(Oc4ccn5ncnc5c4)c(C)c3)c2cc1NC(=O)/C(F)=C/[C@H]1CCCN1C` [Crystal form B, (R,Z)-N-(4-((4-([1,2,4]triazolo[1,5-α]pyridin-7-yloxy)-3-methylphenyl)amino)-7-ethoxyquinazolin-6-yl)-2-fluoro-3-(1-methylpyrrolidin-2-yl)acrylamide], the AUCextra ([1]; SD rats) is reported as 1.01 (h)*(ng/mL), the AUClast ([1]; SD rats) is reported as 5904 (h)*(ng/mL) and the AUCtot ([1]; SD rats) is reported as 5965 (h)*(ng/mL). The Cmax ([1]; SD rats) was 599 ng/mL, the MRT ([1]; SD rats) was 6.07 h and the Tmax ([1]; SD rats) was 6.00 h. For the same compound, the t1/2 ([1]; SD rats) was 3.34 h.

With `CCOc1cc2ncnc(Nc3ccc(Oc4ccn5ncnc5c4)c(C)c3)c2cc1NC(=O)/C(F)=C/[C@H]1CCCN1C` [Crystal form C, (R,Z)-N-(4-((4-([1,2,4]triazolo[1,5-α]pyridin-7-yloxy)-3-methylphenyl)amino)-7-ethoxyquinazolin-6-yl)-2-fluoro-3-(1-methylpyrrolidin-2-yl)acrylamide] the AUCextra ([1]; SD rats) was 0.451 (h)*(ng/mL), the AUClast ([1]; SD rats) was 6863 (h)*(ng/mL) and the AUCtot ([1]; SD rats) was 6894 (h)*(ng/mL). It also gave a Cmax ([1]; SD rats) of 1165 ng/mL, an MRT ([1]; SD rats) of 4.63 h and a Tmax ([1]; SD rats) of 2.00 h. It also gave a t1/2 ([1]; SD rats) of 3.04 h, an IC50 (EGFR kinase) of 1.45 nM and a Stability sample purity ([2]; 25° C./60% RH, 1 week, open) of 99.29 area %. For the same compound, the “Peak at RRT 0.63” value ([2]; 25° C./60% RH, one week) was 0.18%, the “Peak at RRT 0.67” value ([2]; 25° C./60% RH, one week) was 0.18% and the “Peak at RRT 0.95” value ([2]; 25° C./60% RH, one week) was 0.08%. For the same compound, the “Peak at RRT 1.00” value ([2]; 25° C./60% RH, one week) was 99.29%, the “Peak at RRT 1.03” value ([2]; 25° C./60% RH, one week) was 0.12% and the “Peak at RRT 1.08” value ([2]; 25° C./60% RH, one week) was 0.15%. For the same compound, the Stability sample purity ([2]; 40° C./75% RH, 1 week, open) was 99.29 area %, the “Peak at RRT 0.63” value ([2]; 40° C./75% RH, one week) was 0.18% and the “Peak at RRT 0.67” value ([2]; 40° C./75% RH, one week) was 0.18%. For the same compound, the “Peak at RRT 0.95” value ([2]; 40° C./75% RH, one week) was 0.08%, the “Peak at RRT 1.00” value ([2]; 40° C./75% RH, one week) was 99.29% and the “Peak at RRT 1.03” value ([2]; 40° C./75% RH, one week) was 0.12%. For the same compound, the “Peak at RRT 1.08” value ([2]; 40° C./75% RH, one week) was 0.15%, the Stability sample purity ([2]; 60° C., 24 hours, sealed) was 99.29 area % and the “Peak at RRT 0.63” value ([2]; 60° C., one day) was 0.18%. The “Peak at RRT 0.67” value ([2]; 60° C., one day) was 0.18%, the “Peak at RRT 0.95” value ([2]; 60° C., one day) was 0.08% and the “Peak at RRT 1.00” value ([2]; 60° C., one day) was 99.29%. The “Peak at RRT 1.03” value ([2]; 60° C., one day) was 0.12%, the “Peak at RRT 1.08” value ([2]; 60° C., one day) was 0.15% and the “Peak at RRT 0.63” value ([2]; Initial sample) was 0.18%. For the same compound, the “Peak at RRT 0.67” value ([2]; Initial sample) was 0.18%, the “Peak at RRT 0.95” value ([2]; Initial sample) was 0.08% and the “Peak at RRT 1.00” value ([2]; Initial sample) was 99.31%. For the same compound, the “Peak at RRT 1.03” value ([2]; Initial sample) was 0.10%, the “Peak at RRT 1.08” value ([2]; Initial sample) was 0.15% and the Crystal form change ([2]; XRPD, 60° C. 24 hours, 25° C./60% RH 1 week, 40° C./75% RH 1 week) was “No”. It also gave an Initial purity ([2]; before storage, UPLC) of 99.31 area % and an IC50 (ErbB2 kinase (HER2)) of 0.26 nM.

For `CCOc1cc2ncnc(Nc3ccc(Oc4ccn5ncnc5c4)c(C)c3)c2cc1NC(=O)/C(F)=C/[C@H]1CCCN1C` [Crystal form M, (R,Z)-N-(4-((4-([1,2,4]triazolo[1,5-α]pyridin-7-yloxy)-3-methylphenyl)amino)-7-ethoxyquinazolin-6-yl)-2-fluoro-3-(1-methylpyrrolidin-2-yl)acrylamide], the AUCextra ([1]; SD rats) was 0.169 (h)*(ng/mL), the AUClast ([1]; SD rats) was 2870 (h)*(ng/mL) and the AUCtot ([1]; SD rats) was 2875 (h)*(ng/mL). The Cmax ([1]; SD rats) was 489 ng/mL, the MRT ([1]; SD rats) was 4.59 h and the Tmax ([1]; SD rats) was 2.00 h. The t1/2 ([1]; SD rats) was 2.55 h.

Reference: US20250163053A1, “CRYSTALLINE FORM OF NITROGEN-CONTAINING HETEROCYCLIC COMPOUND, PREPARATION METHOD THEREFOR AND USE THEREOF” (SHANGHAI PHARMACEUTICALS HOLDING CO., LTD., priority 2022, published 2025)
